Key:
G207 = test: Effect of HU and FUdR on G207 replication in HCT8 cells; format: cell-based, herpes simplex virus (HSV) type 1
Description: FIG. 4 depicts the results of experiments showing the effects of FUdR and HU on viral replication. HCT8 cells were infected with 2 pfu of G207 per cell. After adsorption of 1 hour at 37° C. inoculum was removed, cells were washed with PBS, and medium containing 10 nM FUdR or control medium without FUdR was added. At 8 hours pi, infected cells in presence and absence of FUdR were exposed to 1 mM HU. At 36 hours pi cells and supernatant were harvested and lysates were prepared by three cycles of freezing and thawing. Viral titers (A) and β-galactosidase activity (B) of the lysate were determined. All assays were performed in triplicates for each condition (avg ± SEM).
Vero cultures were carried for at least one subculture in E-MEM, 2 mM L-glutamine, 10% FCS. Cultures were plated at a density of 1×10^6 cells per well of 6-well plates and incubated at 37° C. in 5% CO2 in air in a humidified incubator. The following day, cultures were washed 2× with PBS, and serial dilutions of cell lysates (0.8 ml/well) were adsorbed onto triplicate dishes for 4 hours at 37° C. Cell lysates were prepared by 4 freeze-thaw cycles. Following adsorption, inoculum was removed, and cultures were overlaid with agar containing medium. Cultures were stained with neutral red 2 days post-inoculation, and plaque formation was assessed the next day.

[1] = system: β-galactosidase expression; test: β-galactosidase activity (lacZ reporter gene in G207) in infected cells; format: cell-based; conditions: HCT8, 2 pfu G207 per cell, 10 nM FUdR, 1 mM HU from 8 hours pi, 36 hours pi
Description: FIG. 2 depicts the results of experiments showing the influence of FUdR on β galactosidase expression following infection with G207. Cells (2×10^4) were plated in 24-well plates, and were infected with G207 at an MOI of 0.01 in presence (10 nM, oblique; 100 nM, black) and absence (white) of FUdR. At day 3 following infection, cells were lysed and total β-galactosidase activity of cell lysates was measured (A). Cell counts for each condition were determined in additional wells by trypan blue exclusion and specific activity was calculated by referring total activity to viable cell number (B). All assays were performed in triplicates (avg ± SEM). For lacZ staining 3×10^5 cells were plated onto 25 cm^2 flasks. Twelve hours later cells were infected with G207 in the presence and absence of FUdR under the same conditions as described above. At day 3 pi, cytospin slides were prepared and stained with X-gal for lacZ expression.
FIG. 4 depicts the results of experiments showing the effects of FUdR and HU on viral replication. […] Viral titers (A) and β-galactosidase activity (B) of the lysate were determined. […]
Activity of β-galactosidase was determined by monitoring the conversion of o-nitrophenyl galactoside (ONPG) to o-nitrophenol and galactose (β-Galactosidase Reporter Assay, Pierce, Rockford, Ill.). […] The reaction rate was determined by spectrophotometric measurement of o-nitrophenol at λ=405 nm. […]

NC(=O)NO [HU, hydroxyurea]
Viral titer, cells treated with HU and FUdR (G207; 1 mM HU and 10 nM FUdR, 36 hours pi): 2.1±0.5×10^4 pfu
Viral titer, cells treated with HU alone (G207; 1 mM HU from 8 hours pi, 36 hours pi): 1.9±0.5×10^4 pfu
Suppression of viral replication (G207; 1 mM HU, HCT8 cells): 90%
Effect on β-galactosidase expression [1]: neither FUdR nor HU had significant effects

From patent US20030228281A1, “Use of mutant herpes viruses and anticancer agents in the treatment of cancer” (priority 2000, published 2003)
